According to PMC12677607, “Identification of a Pair of Linear or Cyclic Naturally Inspired Bifunctional Lipopeptide Antibiotics That Overcome Antimicrobial Resistance” (Advanced Science, 2025):
≈ marks a conversion by molar mass, not a printed value. Bridge positions count the residues as written; N and C are the ends. Square brackets hold non-standard residues; d marks the D form. Peptide text beside a SMILES is read from it. * marks the point of attachment. Myristoyl = CCCCCCCCCCCCCC(=O)*; Orn = NCCC[C@H](N)C(=O)O; Dab = NCC[C@H](N)C(=O)O; Dap = NC[C@H](N)C(=O)O

Key:
[1] = system: Acinetobacter baumannii 1104008; test: microbe, parasite or virus in culture; format: cell-based; conditions: Table S11; LB broth, 37 °C, 16 h, n = 2
Procedure, shortened: (§1)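 Growth inhibition read visually; MIC taken as lowest inhibitory concentration. LB medium; inocula from overnight cultures diluted 5000-fold, S. aureus 10000-fold. Peptide range 64 to 0.125 µg mL^−1 (2-fold, pre-mix), two independent determinations.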

[2] = system: Acinetobacter baumannii ATCC 17978; test: microbe, parasite or virus in culture; format: cell-based; conditions: ATCC 17978, 16 h
Procedure, shortened: as §1

[3] = system: Acinetobacter baumannii ATCC 19606; test: microbe, parasite or virus in culture; format: cell-based; conditions: ATCC 19606, 16 h
Procedure, shortened: as §1

[4] = system: Enterococcus faecalis 26; test: microbe, parasite or virus in culture; format: cell-based; conditions: 26, 16 h
Procedure, shortened: as §1

[5] = system: Enterococcus faecalis 28; test: microbe, parasite or virus in culture; format: cell-based; conditions: 28, 16 h
Procedure, shortened: as §1

[6] = system: Enterococcus faecalis ATCC 29212; test: microbe, parasite or virus in culture; format: cell-based; conditions: ATCC 29212, 16 h
Procedure, shortened: as §1

[7] = system: Enterococcus faecium 35682; test: microbe, parasite or virus in culture; format: cell-based; conditions: Table S11; LB broth, 37 °C, 16 h, n = 2
Procedure, shortened: as §1

[8] = system: Klebsiella pneumoniae ATCC 13883; test: microbe, parasite or virus in culture; format: cell-based; conditions: ATCC 13883, 16 h
Procedure, shortened: as §1

[9] = system: Klebsiella pneumoniae CRKP 5452; test: microbe, parasite or virus in culture; format: cell-based; conditions: for MIC Klebsiella pneumoniae CRKP 5452: Table S11, LB broth, 37 °C, 16 h, n = 2
Procedure, shortened: as §1

[10] = system: Klebsiella pneumoniae CRKP HS11286; test: microbe, parasite or virus in culture; format: cell-based; conditions: for MIC Klebsiella pneumoniae CRKP HS11286: CRKP HS11286, 16 h
Procedure, shortened: as §1

[11] = system: Klebsiella pneumoniae NCTC 5056; test: microbe, parasite or virus in culture; format: cell-based; conditions: NCTC 5056, 16 h
Procedure, shortened: as §1

[12] = system: Pseudomonas aeruginosa ATCC 9027; test: microbe, parasite or virus in culture; format: cell-based; conditions: ATCC 9027, 16 h
Procedure, shortened: as §1

[13] = system: Pseudomonas aeruginosa PAO1; test: microbe, parasite or virus in culture; format: cell-based
Procedure, shortened: as §1

[14] = system: Salmonella enterica ATCC 14028; test: microbe, parasite or virus in culture; format: cell-based; conditions: ATCC 14028, 16 h
Procedure, shortened: as §1

[15] = system: Salmonella typhimurium LXX; test: microbe, parasite or virus in culture; format: cell-based; conditions: murium LXX, 16 h
Procedure, shortened: as §1

[16] = system: Staphylococcus aureus ATCC 25923; test: microbe, parasite or virus in culture; format: cell-based; conditions: ATCC 25923, 16 h
Procedure, shortened: as §1

[17] = system: Staphylococcus aureus ATCC 6538; test: microbe, parasite or virus in culture; format: cell-based; conditions: ATCC 6538, 16 h
Procedure, shortened: as §1

[18] = system: Staphylococcus aureus Newman; test: microbe, parasite or virus in culture; format: cell-based; conditions: Newman, 16 h
Procedure, shortened: as §1

[19] = system: Staphylococcus aureus USA300; test: microbe, parasite or virus in culture; format: cell-based; conditions: for MIC Staphylococcus aureus USA300: Table S11, LB broth, 37 °C, 16 h, n = 2
Procedure, shortened: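 Broth microdilution in LB, run in two independent repeats. Overnight cultures were diluted 5000-fold, except S. aureus at 10000-fold, and mixed with peptide-containing LB (2-fold series, 64 to 0.125 µg mL^−1 before mixing). MIC is the lowest concentration that prevented visible growth.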

[20] = system: Streptococcus mutans ATCC 25175; test: microbe, parasite or virus in culture; format: cell-based; conditions: ATCC 25175, 16 h
Procedure, shortened: as §1

[21] = system: Streptococcus pyogenes ATCC 19615; test: microbe, parasite or virus in culture; format: cell-based; conditions: Table S11; LB broth, 37 °C, 16 h, n = 2
Procedure, shortened: as §1

[22] = system: Vibrio alginolyticus XSBZ14; test: microbe, parasite or virus in culture; format: cell-based; conditions: 16 h
Procedure, shortened: as §1

[23] = system: Candida albicans ATCC 10231; test: MIC assay (YPD broth); format: cell-based; conditions: Table S11; YPD broth, 30 °C, 16 h, n = 2
Experimental: (§2) All MIC assays were performed two independent times (n = 2) in 96‐well plates using a broth micro‐dilution method. The lowest concentration of that inhibited visible microbial growth was recorded as the MIC value.
(§3) For fungal strains, overnight cultures were diluted 2000‐fold in YPD broth. 100 µL of diluted cells was mixed with 100 µL of YPD broth containing each peptide ranging from […] 64 to 0.125 µg mL^−1 at 2‐fold serial dilutions.

[24] = system: Candida albicans ATCC 64550; format: cell-based; conditions: ATCC 64550, 16 h
Experimental: as §2, §3

[25] = Isothermal titration calorimetry; format: binding, Escherichia coli O55:B5; conditions: Table S12; ITC, 2 mM LPS into 0.2 mM peptide, in H2O, 20 injections
Experimental: Calorimetric experiments were performed to evaluate the interaction between CL, PE, PG, or LPS and aquicidine L or aquicidine C4. To determine the affinity between aquicidine L or aquicidine C4 and CL, PE, or PG, both 2 mM CL, PE, or PG and 0.2 mM aquicidine L or aquicidine C4 were dissolved in 20 mM HEPES buffer (pH 7.5). To determine the interaction between LPS and aquicidine L or aquicidine C4, 2 mM LPS and 0.2 mM aquicidine L or aquicidine C4 were dissolved in H2O. Sequential injections of CL, PE, PG, or LPS into the calorimetric cell filled with aquicidine L or aquicidine C4 were repeated 20 times with equilibration intervals of 200 s. Data were collected by using a MicroCal PEAQ‐ITC instrument and calculated for the equilibrium dissociation constant (KD), change of enthalpy (ΔH), and change of entropy […].

[26] = system: S. aureus USA300; test: Membrane lysis assay (SYTOX Green); format: cell-based; conditions: S. aureus USA300 in PBS, 8 × MIC, n = 2
Experimental: Bacterial membrane lysis assay was performed in 384‐well black microtiter plates. Overnight cultures of S. aureus USA300 were collected and resuspended in PBS buffer to an OD600 of 0.5. 1 µL of 5 mM SYTOX Green dye was added to 2.5 mL of the diluted cell suspension, which was incubated for 10 min at room temperature in the dark. Fluorescence intensity was detected continually at 2 s intervals (Ex/Em 488/523 nm) using a Tecan spark multimode microplate reader. When the fluorescence signal stabilized, the appropriate amount of each compound (6.4 mg mL^−1 in DMSO, 8 × MIC) was added. DMSO and daptomycin (with 15 mM CaCl2) were used as negative and positive controls, respectively. Data were shown as the relative intensity with respect to the average fluorescence signal prior to the addition of each compound. All membrane lysis assays were performed two independent times (n = 2), and a representative fluorescence recording was presented.

Compound	MIC Acinetobacter baumannii 1104008 [1] [µg/mL]	MIC Acinetobacter baumannii ATCC 17978 [2] [µg/mL]	MIC Acinetobacter baumannii ATCC 19606 [3] [µg/mL]	MIC Enterococcus faecalis 26 [4] [µg/mL]	MIC Enterococcus faecalis 28 [5] [µg/mL]	MIC Enterococcus faecalis ATCC 29212 [6] [µg/mL]	MIC Enterococcus faecium 35682 [7] [µg/mL]	MIC Klebsiella pneumoniae ATCC 13883 [8] [µg/mL]	MIC Klebsiella pneumoniae CRKP 5452 [9] [µg/mL]	MIC Klebsiella pneumoniae CRKP HS11286 [10] [µg/mL]	MIC Klebsiella pneumoniae NCTC 5056 [11] [µg/mL]	MIC Pseudomonas aeruginosa ATCC 9027 [12] [µg/mL]	MIC Salmonella enterica ATCC 14028 [14] [µg/mL]	MIC Salmonella typhimurium LXX [15] [µg/mL]	MIC Staphylococcus aureus ATCC 25923 [16] [µg/mL]	MIC Staphylococcus aureus ATCC 6538 [17] [µg/mL]	MIC Staphylococcus aureus Newman [18] [µg/mL]	MIC Staphylococcus aureus USA300 [19] [µg/mL]	MIC Streptococcus mutans ATCC 25175 [20] [µg/mL]	MIC Streptococcus pyogenes ATCC 19615 [21] [µg/mL]	other results
CCCCCCCCCCCCCC(=O)N[C@@H](CN)C(=O)N[C@H](C(=O)N[C@@H](CC(C)C)C(=O)N[C@H]1COC(=O)[C@H](Cc2ccccc2)NC(=O)[C@H](CC(N)=O)NC(=O)[C@H](CCCN)NC(=O)[C@H]([C@@H](C)CC)NC(=O)[C@H](Cc2ccccc2)NC(=O)[C@H](CN)NC(=O)[C@H](CCN)NC1=O)[C@@H](C)O [synAQU5-C4] (Myristoyl-[Dap]TLS[Dab][Dap]FI[Orn]NF; ester 4-C)	16 (≈ 11.3 µM)	32 (≈ 22.5 µM)	32 (≈ 22.5 µM)	2 (≈ 1.41 µM)	4 (≈ 2.82 µM)	4 (≈ 2.82 µM)	4 (≈ 2.82 µM)	> 64	32 (≈ 22.5 µM)	32 (≈ 22.5 µM)	> 64	16 (≈ 11.3 µM)	32 (≈ 22.5 µM)	32 (≈ 22.5 µM)	4 (≈ 2.82 µM)	4 (≈ 2.82 µM)	4 (≈ 2.82 µM)	4 (≈ 2.82 µM)	4 (≈ 2.82 µM)	2 (≈ 1.41 µM)	MIC Pseudomonas aeruginosa PAO1 ([13]; PAO1, 16 h): 32 µg/mL (≈ 22.5 µM); antibacterial activity (MIC) S. aureus USA300 ([19]; Figure S127b, wild type): 4 µg/mL; MIC Vibrio alginolyticus XSBZ14 [22]: 32 µg/mL (≈ 22.5 µM); MIC Candida albicans ATCC 10231 [23]: > 64 µg/mL; MIC Candida albicans ATCC 64550 [24]: > 64 µg/mL; Kd [25]: 1.84 µM; SYTOX fluorescence (cell lysis) [26]: significant increase
CCCCCCCCCCCCCC(=O)N[C@@H](CN)C(=O)N[C@H](C(=O)N[C@@H](CC(C)C)C(=O)N[C@@H](CO)C(=O)N[C@@H](CCN)C(=O)N[C@@H](CN)C(=O)N[C@@H](Cc1ccccc1)C(=O)N[C@H](C(=O)N[C@@H](CCCN)C(=O)N[C@@H](CC(N)=O)C(=O)N[C@@H](Cc1ccccc1)C(=O)O)[C@@H](C)CC)[C@@H](C)O [synAQU5-L] (Myristoyl-[Dap]TLS[Dab][Dap]FI[Orn]NF-OH)	4 (≈ 2.78 µM)	4 (≈ 2.78 µM)	8 (≈ 5.56 µM)	8 (≈ 5.56 µM)	16 (≈ 11.1 µM)	32 (≈ 22.3 µM)	16 (≈ 11.1 µM)	8 (≈ 5.56 µM)	4 (≈ 2.78 µM)	4 (≈ 2.78 µM)	8 (≈ 5.56 µM)	4 (≈ 2.78 µM)	4 (≈ 2.78 µM)	8 (≈ 5.56 µM)	32 (≈ 22.3 µM)	16 (≈ 11.1 µM)	32 (≈ 22.3 µM)	16 (≈ 11.1 µM)	16 (≈ 11.1 µM)	8 (≈ 5.56 µM)	antibacterial activity (MIC) K. pneumoniae CRKP 5452 ([9]; Figure S127a, wild type): 4 µg/mL; antibacterial activity (MIC) K. pneumoniae CRKP HS11286 ([10]; Figure S127a): 4 µg/mL; MIC Pseudomonas aeruginosa PAO1 ([13]; Table S11, LB broth, 37 °C, 16 h, n = 2): 4 µg/mL (≈ 2.78 µM); MIC Vibrio alginolyticus XSBZ14 [22]: 8 µg/mL (≈ 5.56 µM); MIC Candida albicans ATCC 10231 [23]: > 64 µg/mL; MIC Candida albicans ATCC 64550 [24]: > 64 µg/mL; Kd [25]: 0.29 µM; SYTOX fluorescence (cell lysis) [26]: not aquicidine L caused a significant increase
